Laboratory results published in patent US20190152992A1, “BENZODIOXANE DERIVATIVES AND THEIR PHARMACEUTICAL USE” (Orion Corporation, priority 2016, published 2019).
Structures can show the parent of a compound that is named as a salt.

Key:
[1] = biological target: T1, human alpha2C receptors (Homo sapiens, UniProt P18825); assay: Determination of alpha2C antagonistic activity in vitro (FLIPR calcium assay); details: for Kb: Alpha 2C Adrenaline Kb, Kb calculated from IC50 with the Cheng-Prusoff equation, adrenaline as agonist, CHO cells, human alpha2C
T1 sequence (P18825 1-462): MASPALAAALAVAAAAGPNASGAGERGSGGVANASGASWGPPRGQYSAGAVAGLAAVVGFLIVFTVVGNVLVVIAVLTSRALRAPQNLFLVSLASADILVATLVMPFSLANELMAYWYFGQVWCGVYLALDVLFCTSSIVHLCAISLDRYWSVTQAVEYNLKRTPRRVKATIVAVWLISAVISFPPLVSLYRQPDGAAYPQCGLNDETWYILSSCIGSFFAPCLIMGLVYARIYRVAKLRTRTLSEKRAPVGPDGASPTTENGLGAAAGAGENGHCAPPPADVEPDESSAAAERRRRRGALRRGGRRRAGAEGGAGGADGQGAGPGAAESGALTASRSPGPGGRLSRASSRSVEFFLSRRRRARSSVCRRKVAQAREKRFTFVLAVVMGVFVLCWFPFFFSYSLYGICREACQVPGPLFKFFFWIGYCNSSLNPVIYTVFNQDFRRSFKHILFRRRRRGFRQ
Protocol: Experiment 1: Determination of alpha2A and alpha2C Antagonistic Activity In Vitro
The growth medium was removed and the cells were incubated with the test compounds and the FLIPR Calcium 6 Assay reagent (Molecular Devices, CA, USA) for 2 h at 37° C. in dark. The test compounds (concentrations in cells 100 pM-10 μM) were dissolved in Probenecid-Ringer consisting of 150 mM NaCl, 3 mM KCl, 1.2 mM MgCl2, 1 mM CaCl2, 5 mM glucose, 20 mM HEPES and 2.5 mM probenecid (pH 7.4 adjusted with 1.0 M NaOH). […] All experiments were performed at 37° C. For agonism measurements the test compounds dissolved in Probenecid-Ringer were applied by FLIPR Tetra at 15 s time point. In order to determine antagonism, the cells were stimulated either with 100 nM adrenaline or noradrenaline and the test compounds were added to the cells 2 h before the experiment with the FLIPR Calcium 6 Assay reagent. […] Typically, there were four replicates at each concentration and six different dose levels. […] The minimum fluorescence value subtracted from the maximum value for each well was used in the calculations. ScreenWorks version 4.0 software was used for analyzing the results. Fitting of the antagonist dose-response results was performed with the free Hill equation and the IC50 values were fitted with IDBS XE software using model 200: y=(A+(B/(1+((x/C)̂D)))), where A is the curve maximum, B the curve minimum and C equals the EC50 value. D is slope factor (Hill). Kb was calculated with the Cheng-Prusoff equation Kb=A/((B/C)+1), where A is the IC50 of antagonist, B the concentration of agonist and C the EC50 of the agonist.

[2] = biological target: T2, human alpha2A receptors (Homo sapiens, UniProt P08913); assay: cell-based
T2 sequence (P08913 1-465): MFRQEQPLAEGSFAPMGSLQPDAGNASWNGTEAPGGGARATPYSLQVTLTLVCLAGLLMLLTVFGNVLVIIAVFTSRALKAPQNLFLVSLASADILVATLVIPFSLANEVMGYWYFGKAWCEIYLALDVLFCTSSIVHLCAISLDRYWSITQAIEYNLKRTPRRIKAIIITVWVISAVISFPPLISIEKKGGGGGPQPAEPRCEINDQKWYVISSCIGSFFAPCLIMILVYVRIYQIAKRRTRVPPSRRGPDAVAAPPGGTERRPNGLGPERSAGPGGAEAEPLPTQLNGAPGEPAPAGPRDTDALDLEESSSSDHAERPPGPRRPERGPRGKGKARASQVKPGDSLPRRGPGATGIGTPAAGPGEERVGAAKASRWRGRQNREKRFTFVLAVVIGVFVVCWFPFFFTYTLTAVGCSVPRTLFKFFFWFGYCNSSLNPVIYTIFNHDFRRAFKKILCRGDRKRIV

IC50 [1]	IC50 [2]	Kb [2]	Kb [1]	SMILES
0.175 nM	> 10000 nM	> 449 nM	0.015 nM	C[C@@H]1NC(=O)N([C@H]2CCCN(C[C@H]3COc4ccccc4O3)C2)C1=O [example 113, (S)-3-((S)-1-(((S)-2,3-Dihydrobenzo[b][1,4]dioxin-2-yl)methyl)-piperidin-3-yl)-5-methylimidazolidine-2,4-dione]
4.35 nM	> 10000 nM	> 449 nM	0.438 nM	CN1C(=O)C(=O)N([C@H]2CCCN(C[C@H]3COc4ccccc4O3)C2)C1=O [example 138, 1-((S)-1-(((S)-2,3-Dihydrobenzo[b][1,4]dioxin-2-yl)methyl)piperidin-3-yl)-3-methylimidazolidine-2,4,5-trione]
1.99 nM	> 10000 nM	> 449 nM	0.202 nM	CC(C)(C)N1CC(=O)N([C@H]2CCCN(C[C@H]3COc4ccccc4O3)C2)C1=O [example 117, 1-tert-Butyl-3-((S)-1-(((S)-2,3-dihydrobenzo[b][1,4]dioxin-2-yl)methyl)piperidin-3-yl)imidazolidine-2,4-dione]
3.52 nM	> 10000 nM	> 449 nM	0.354 nM	CN1C(=O)N([C@H]2CCCN(C[C@H]3COc4ccccc4O3)C2)C(=O)C12CC2 [example 123, 6-((S)-1-(((S)-2,3-Dihydrobenzo[b][1,4]dioxin-2-yl)methyl)-piperidin-3-yl)-4-methyl-4,6-diazaspiro[2.4]heptane-5,7-dione]
0.308 nM	> 10000 nM	> 449 nM	0.031 nM	CCCN1C(=O)C(=O)N([C@H]2CCCN(C[C@H]3COc4ccccc4O3)C2)C1=O [example 132, 1-((S)-1-(((S)-2,3-Dihydrobenzo[b][1,4]dioxin-2-yl)methyl)-piperidin-3-yl)-3-propylimidazolidine-2,4,5-trione]
0.87 nM	> 10000 nM	> 449 nM	0.09 nM	CN1C(=O)N([C@H]2CCCN(C[C@H]3COc4ccccc4O3)C2)C(=O)C1(C)C [example 111, 3-((S)-1-(((S)-2,3-Dihydrobenzo[b][1,4]dioxin-2-yl)methyl)-piperidin-3-yl)-1,5,5-trimethylimidazolidine-2,4-dione]
< 0.1 nM	2340 nM	105 nM	< 0.01 nM	O=C1NC(c2ccccc2)C(=O)N1[C@H]1CCCN(C[C@H]2COc3ccccc3O2)C1 (stereo partly drawn) [example 114, 3-((S)-1-(((S)-2,3-Dihydrobenzo[b][1,4]dioxin-2-yl)methyl)piperidin-3-yl)-5-phenylimidazolidine-2,4-dione]
1.64 nM	5700 nM	256 nM	0.165 nM	O=C1C(=O)N([C@H]2CCCN(C[C@H]3COc4ccccc4O3)C2)C(=O)N1Cc1ccccc1 [example 131, 1-Benzyl-3-((S)-1-(((S)-2,3-dihydrobenzo[b][1,4]dioxin-2-yl)methyl)piperidin-3-yl)imidazolidine-2,4,5-trione]
0.027 nM	8670 nM	389 nM	0.003 nM	O=C1C(=O)N([C@H]2CCCN(C[C@H]3COc4ccccc4O3)C2)C(=O)N1C1CCCC1 [example 127, 1-Cyclopentyl-3-((S)-1-(((S)-2,3-dihydrobenzo[b][1,4]dioxin-2-yl)methyl)piperidin-3-yl)imidazolidine-2,4,5-trione]

Further lines, the molecule ahead of its results:

SMILES	IC50 [1]	IC50 [2]	Kb [2]	Kb [1]
CC1(c2ccccc2)CC(=O)N([C@H]2CCCN(C[C@H]3COc4ccccc4O3)C2)C1=O (stereo partly drawn) [example 35, 1-((S)-1-(((S)-2,3-Dihydrobenzo[b][1,4]dioxin-2-yl)methyl)piperidin-3-yl)-3-methyl-3-phenylpyrrolidine-2,5-dione]	< 0.01 nM	193 nM	9 nM	–
O=C1[C@H]2CCCC[C@H]2C(=O)N1[C@H]1CCCN(C[C@H]2COc3ccccc3O2)C1 [example 93, (3aR,7aS)-2-((S)-1-(((S)-2,3-Dihydrobenzo[b][1,4]dioxin-2-yl)methyl)piperidin-3-yl)hexahydro-1H-isoindole-1,3(2H)-dione hydrochloride]	0.091 nM	> 10000 nM	> 449 nM	0.009 nM
O=S1(=O)c2ccccc2CN1[C@H]1CCCN(C[C@H]2COc3ccccc3O2)C1 [example 81, 2-((S)-1-(((S)-2,3-Dihydrobenzo[b][1,4]dioxin-2-yl)methyl)piperidin-3-yl)-2,3-dihydrobenzo[d]isothiazole 1,1-dioxide]	653 nM	> 10000 nM	> 449 nM	65.7 nM
CCN1CCN([C@H]2CCCN(C[C@H]3COc4ccccc4O3)C2)C1=O [example 16, 1-((S)-1-(((S)-2,3-Dihydrobenzo[b][1,4]dioxin-2-yl)methyl)piperidin-3-yl)-3-ethylimidazolidin-2-one]	0.57 nM	> 10000 nM	> 449 nM	0.06 nM
N#Cc1ccc2c(c1)CN([C@H]1CCCN(C[C@H]3COc4ccccc4O3)C1)C2=O [example 67, 2-((S)-1-(((S)-2,3-Dihydrobenzo[b][1,4]dioxin-2-yl)methyl)piperidin-3-yl)-1-oxoisoindoline-5-carbonitrile]	1.3 nM	> 10000 nM	> 449 nM	0.132 nM
COc1cccc2c1C(=O)N([C@H]1CCCN(C[C@H]3COc4ccccc4O3)C1)C2=O [example 65, 2-((S)-1-(((S)-2,3-Dihydrobenzo[b][1,4]dioxin-2-yl)methyl)piperidin-3-yl)-4-methoxyisoindoline-1,3-dione]	< 0.1 nM	> 10000 nM	> 449 nM	< 0.01 nM
O=C1C2CCCC2C(=O)N1[C@H]1CCCN(C[C@H]2COc3ccccc3O2)C1 (stereo partly drawn) [example 92, 2-((S)-1-(((S)-2,3-Dihydrobenzo[b][1,4]dioxin-2-yl)methyl)piperidin-3-yl)tetrahydrocyclopenta[c]pyrrole-1,3(2H,3aH)-dione hydrochloride]	0.15 nM	> 10000 nM	> 449 nM	0.02 nM
O=C1c2cccc(F)c2C(=O)N1[C@H]1CCCN(C[C@H]2COc3ccccc3O2)C1 [example 63, 2-((S)-1-(((S)-2,3-Dihydrobenzo[b][1,4]dioxin-2-yl)methyl)piperidin-3-yl)-4-fluoroisoindoline-1,3-dione hydrochloride]	< 0.1 nM	> 10000 nM	> 449 nM	< 0.01 nM
CC(=O)NCc1ccc2c(c1)CN([C@H]1CCCN(C[C@H]3COc4ccccc4O3)C1)C2=O [example 71, N-((2-((S)-1-(((S)-2,3-Dihydrobenzo[b][1,4]dioxin-2-yl)methyl)piperidin-3-yl)-1-oxoisoindolin-5-yl)methyl)acetamide]	0.12 nM	> 10000 nM	> 449 nM	0.012 nM
CN(C)C(=O)CN1CC(=O)N([C@H]2CCCN(C[C@H]3COc4ccccc4O3)C2)C1=O [example 109, 2-(3-((S)-1-(((S)-2,3-Dihydrobenzo[b][1,4]dioxin-2-yl)methyl)piperidin-3-yl)-2,4-dioxoimidazolidin-1-yl)-N,N-dimethylacetamide]	0.117 nM	> 10000 nM	> 449 nM	0.014 nM
CC1CCC(=O)N1[C@H]1CCCN(C[C@H]2COc3ccccc3O2)C1 (stereo partly drawn) [example 30, 1-((S)-1-(((S)-2,3-Dihydrobenzo[b][1,4]dioxin-2-yl)methyl)piperidin-3-yl)-5-methylpyrrolidin-2-one]	1.11 nM	> 1000 nM	> 45 nM	0.11 nM
O=C1c2cccnc2CN1[C@H]1CCCN(C[C@H]2COc3ccccc3O2)C1 [example 10, 6-((S)-1-(((S)-2,3-Dihydrobenzo[b][1,4]dioxin-2-yl)methyl)piperidin-3-yl)-6,7-dihydro-5H-pyrrolo[3,4-b]pyridin-5-one]	3.78 nM	> 10000 nM	> 449 nM	0.379 nM
O=C1c2ccc(F)cc2C(=O)N1[C@H]1CCCN(C[C@H]2COc3ccccc3O2)C1 [example 62, 2-((S)-1-(((S)-2,3-Dihydrobenzo[b][1,4]dioxin-2-yl)methyl)piperidin-3-yl)-5-fluoroisoindoline-1,3-dione]	< 0.1 nM	> 10000 nM	> 449 nM	< 0.01 nM
O=C1C=C(c2ccccc2)CN1[C@H]1CCCN(C[C@H]2COc3ccccc3O2)C1 [example 39, 1-((S)-1-(((S)-2,3-Dihydrobenzo[b][1,4]dioxin-2-yl)methyl)piperidin-3-yl)-4-phenyl-1H-pyrrol-2(5H)-one]	1.79 nM	> 10000 nM	> 449 nM	0.181 nM
